Values joined by “and” are separate entries in the source; they are usually repeats but may differ in a detail not shown here. Equal entries are not always repeated. Inconclusive results and toxic doses are left out. Rule for the calls: active = survival T/C of 150% or more; inactive = T/C below 125% in these data.
System: P388 leukemia ip, CD2F1 mice, survival T/C
Test: NCI In Vivo Anticancer Drug Screen. Data for tumor model P388 Leukemia (intraperitoneal) in CD2F1 (CDF1) mice
Settings: endpoint: median survival time, higher = longer survival
Method in brief: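 Mice carrying the transplanted tumor received test compound or vehicle. Survival was recorded in each group, and the value is the treated-group measurement divided by that of the vehicle-treated control group.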

[1] = dose: 50.0 mg/kg/injection, schedule: Q01DX009 (ip), vehicle: saline with Tween-80
[2] = dose: 100.0 mg/kg/injection, schedule: Q01DX009 (ip), vehicle: saline with Tween-80
[3] = dose: 200.0 mg/kg/injection, schedule: Q01DX009 (ip), vehicle: saline with Tween-80
[4] = dose: 50.0 mg/kg/injection, schedule: Q01DX009 (ip), vehicle: Klucel (hydroxypropylcellulose) (HPC)
[5] = dose: 100.0 mg/kg/injection, schedule: Q01DX009 (ip), vehicle: Klucel (hydroxypropylcellulose) (HPC)
[6] = dose: 200.0 mg/kg/injection, schedule: Q01DX009 (ip), vehicle: Klucel (hydroxypropylcellulose) (HPC)
[7] = dose: 100.0 mg/kg/injection, schedule: Q04DX003 (ip), vehicle: saline with Tween-80
[8] = dose: 60.0 mg/kg/injection, schedule: Q01DX005 (ip), vehicle: Klucel (hydroxypropylcellulose) (HPC)
[9] = dose: 120.0 mg/kg/injection, schedule: Q01DX005 (ip), vehicle: Klucel (hydroxypropylcellulose) (HPC)
[10] = dose: 240.0 mg/kg/injection, schedule: Q01DX005 (ip), vehicle: Klucel (hydroxypropylcellulose) (HPC)
[11] = dose: 50.0 mg/kg/injection, schedule: Q01DX005 (ip), vehicle: saline with Tween-80
[12] = dose: 100.0 mg/kg/injection, schedule: Q01DX005 (ip), vehicle: saline with Tween-80
[13] = dose: 200.0 mg/kg/injection, schedule: Q01DX005 (ip), vehicle: saline with Tween-80

Measured: T/C

Cc1noc(N)c1C
inactive: dose: 25.0 mg/kg/injection, schedule: Q01DX009 (ip), vehicle: saline 98 % of control | dose: 50.0 mg/kg/injection, schedule: Q01DX009 (ip), vehicle: saline 98 % of control | dose: 100.0 mg/kg/injection, schedule: Q01DX009 (ip), vehicle: saline 98 % of control | dose: 200.0 mg/kg/injection, schedule: Q01DX009 (ip), vehicle: saline 95 % of control

N#Cc1ccc[nH]c1=S
inactive: [1] 95 % of control | [2] 102 % of control | [3] 104 % of control

O=C(O)c1ccccc1.[Eu]
inactive: dose: 12.5 mg/kg/injection, schedule: Q01DX009 (ip), vehicle: Klucel (hydroxypropylcellulose) (HPC) 88 % of control | dose: 25.0 mg/kg/injection, schedule: Q01DX009 (ip), vehicle: Klucel (hydroxypropylcellulose) (HPC) 87 % of control | [4] 89 % of control and 92 % of control | [5] 90 % of control | [6] 89 % of control

CC(C)=CCCC(C)=C(C#N)C#N
inactive: [7] 100 % of control

O=C(COc1ccc(Cl)cc1Cl)Nc1ccc(S(=O)(=O)O)cc1
inactive: [8] 104 % of control | [9] 104 % of control | [10] 98 % of control

CCCCCCCCCC1c2[nH]c3ccccc3c2C(=O)NN1C(C)=O (stereo not drawn)
inactive: dose: 100.0 mg/kg/injection, schedule: Q01DX001 (ip), vehicle: Klucel (hydroxypropylcellulose) (HPC) 98 % of control | dose: 200.0 mg/kg/injection, schedule: Q01DX001 (ip), vehicle: Klucel (hydroxypropylcellulose) (HPC) 98 % of control | dose: 400.0 mg/kg/injection, schedule: Q01DX001 (ip), vehicle: Klucel (hydroxypropylcellulose) (HPC) 104 % of control

O=C(Oc1ccccc1)c1cc(O)c(O)c(O)c1
inactive: dose: 25.0 mg/kg/injection, schedule: Q01DX005 (ip), vehicle: saline with Tween-80 100 % of control and 95 % of control | [11] 100 % of control and 101 % of control | [12] 99 % of control and 100 % of control | [13] 101 % of control and 116 % of control | dose: 400.0 mg/kg/injection, schedule: Q01DX005 (ip), vehicle: saline with Tween-80 109 % of control

c1ccc2sc(SCSc3nc4ccccc4s3)nc2c1
inactive: [4] 111 % of control | [5] 112 % of control | [6] 114 % of control | dose: 400.0 mg/kg/injection, schedule: Q01DX009 (ip), vehicle: Klucel (hydroxypropylcellulose) (HPC) 117 % of control

COC(=O)C(Cc1ccccc1)NC(=O)C(Cc1c[nH]c2ccccc12)NC(=O)OC(C)(C)C (stereo not drawn)
inactive: [4] 95 % of control | [5] 87 % of control | [6] 108 % of control

CCCCN=C(N=C(NC(=O)c1ccccc1)c1ccccc1)c1ccccc1
inactive: [1] 90 % of control | [2] 89 % of control | [3] 93 % of control

CCCCCCCCN(CCCCCCCC)/N=C/c1c2c(O)c3c(O)c(C)c4c(c3c1O)C(=O)C(C)(O/C=C/C(OC)C(C)C(OC(C)=O)C(C)C(O)C(C)C(O)C(C)/C=C/C=C(C)C(=O)N2)O4 (stereo not drawn)
inactive: [8] 95 % of control | [9] 89 % of control | [10] 92 % of control

c1ccc(C2CC(c3ccc(C4=NN(c5ccccc5)C(c5ccccc5)C4)cc3)=NN2c2ccccc2)cc1 (stereo not drawn)
inactive: dose: 25.0 mg/kg/injection, schedule: Q04DX003 (ip), vehicle: saline with Tween-80 102 % of control | dose: 50.0 mg/kg/injection, schedule: Q04DX003 (ip), vehicle: saline with Tween-80 91 % of control | [7] 87 % of control | dose: 200.0 mg/kg/injection, schedule: Q04DX003 (ip), vehicle: saline with Tween-80 89 % of control | dose: 400.0 mg/kg/injection, schedule: Q04DX003 (ip), vehicle: saline with Tween-80 100 % of control

FC(F)(F)COP(OCC(F)(F)F)c1ccccc1
inactive: [11] 106 % of control | [12] 111 % of control | [13] 111 % of control

Brc1ccc(C(Nc2nncs2)Nc2nncs2)cc1
inactive: dose: 60.0 mg/kg/injection, schedule: Q01DX005 (ip), vehicle: saline with Tween-80 111 % of control | dose: 120.0 mg/kg/injection, schedule: Q01DX005 (ip), vehicle: saline with Tween-80 115 % of control | dose: 240.0 mg/kg/injection, schedule: Q01DX005 (ip), vehicle: saline with Tween-80 107 % of control

From PubChem BioAssay AID330 (DTP/NCI, 2004)
